Assays:
[1] = molecular target: T1, Mitogen-activated protein kinase kinase kinase 3 (Homo sapiens) (UniProt Q99759); details: Compound concentration 1000.0 nM
T1 sequence (whole entry): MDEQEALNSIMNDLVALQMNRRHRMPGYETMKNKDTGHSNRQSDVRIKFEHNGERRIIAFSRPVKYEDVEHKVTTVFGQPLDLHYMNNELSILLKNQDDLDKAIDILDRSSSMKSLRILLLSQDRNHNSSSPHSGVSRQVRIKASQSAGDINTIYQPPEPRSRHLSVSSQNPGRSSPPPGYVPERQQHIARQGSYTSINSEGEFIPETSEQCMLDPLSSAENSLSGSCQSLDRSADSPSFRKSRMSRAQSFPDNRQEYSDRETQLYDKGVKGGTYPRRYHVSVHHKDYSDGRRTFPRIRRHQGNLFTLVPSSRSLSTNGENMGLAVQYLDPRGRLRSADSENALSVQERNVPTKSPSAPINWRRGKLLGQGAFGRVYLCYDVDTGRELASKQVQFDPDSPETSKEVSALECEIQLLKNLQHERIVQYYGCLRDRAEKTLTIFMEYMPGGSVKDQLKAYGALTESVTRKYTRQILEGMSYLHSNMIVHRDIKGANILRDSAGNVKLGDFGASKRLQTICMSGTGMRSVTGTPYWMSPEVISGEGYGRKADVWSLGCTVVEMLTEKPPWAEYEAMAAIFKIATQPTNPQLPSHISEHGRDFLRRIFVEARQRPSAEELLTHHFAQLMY

[2] = molecular target: Casein kinase I isoform alpha (Homo sapiens) (UniProt P48729); details: Compound concentration 1000.0 nM
Casein kinase I isoform alpha (Homo sapiens), sequence (P48729 2-337 limits assumed): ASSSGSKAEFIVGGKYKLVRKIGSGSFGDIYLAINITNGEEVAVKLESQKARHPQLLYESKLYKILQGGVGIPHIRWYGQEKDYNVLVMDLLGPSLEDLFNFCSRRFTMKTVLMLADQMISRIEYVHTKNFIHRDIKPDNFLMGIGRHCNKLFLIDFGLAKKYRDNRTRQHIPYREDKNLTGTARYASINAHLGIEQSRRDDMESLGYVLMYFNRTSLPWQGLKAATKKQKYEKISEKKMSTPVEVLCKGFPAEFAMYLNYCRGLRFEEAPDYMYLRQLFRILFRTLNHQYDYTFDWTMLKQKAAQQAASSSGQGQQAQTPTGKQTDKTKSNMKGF

[3] = molecular target: 5-hydroxytryptamine receptor 5A (Homo sapiens) (UniProt P47898); details: Compound concentration 10.0 uM
5-hydroxytryptamine receptor 5A (Homo sapiens), sequence (P47898 whole entry): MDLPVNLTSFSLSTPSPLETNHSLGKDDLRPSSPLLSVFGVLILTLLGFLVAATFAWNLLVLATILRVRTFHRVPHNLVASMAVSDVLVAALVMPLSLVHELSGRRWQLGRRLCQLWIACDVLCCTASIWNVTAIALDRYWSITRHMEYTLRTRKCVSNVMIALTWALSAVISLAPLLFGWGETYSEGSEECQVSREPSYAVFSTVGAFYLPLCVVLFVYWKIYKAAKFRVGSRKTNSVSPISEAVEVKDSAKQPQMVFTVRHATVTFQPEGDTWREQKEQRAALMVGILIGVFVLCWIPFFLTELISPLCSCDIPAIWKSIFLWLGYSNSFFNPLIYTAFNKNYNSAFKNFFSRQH

[4] = molecular target: ALK tyrosine kinase receptor (Homo sapiens) (UniProt Q9UM73); details: Compound concentration 1000.0 nM
ALK tyrosine kinase receptor (Homo sapiens), sequence (Q9UM73 19-1620 limits assumed): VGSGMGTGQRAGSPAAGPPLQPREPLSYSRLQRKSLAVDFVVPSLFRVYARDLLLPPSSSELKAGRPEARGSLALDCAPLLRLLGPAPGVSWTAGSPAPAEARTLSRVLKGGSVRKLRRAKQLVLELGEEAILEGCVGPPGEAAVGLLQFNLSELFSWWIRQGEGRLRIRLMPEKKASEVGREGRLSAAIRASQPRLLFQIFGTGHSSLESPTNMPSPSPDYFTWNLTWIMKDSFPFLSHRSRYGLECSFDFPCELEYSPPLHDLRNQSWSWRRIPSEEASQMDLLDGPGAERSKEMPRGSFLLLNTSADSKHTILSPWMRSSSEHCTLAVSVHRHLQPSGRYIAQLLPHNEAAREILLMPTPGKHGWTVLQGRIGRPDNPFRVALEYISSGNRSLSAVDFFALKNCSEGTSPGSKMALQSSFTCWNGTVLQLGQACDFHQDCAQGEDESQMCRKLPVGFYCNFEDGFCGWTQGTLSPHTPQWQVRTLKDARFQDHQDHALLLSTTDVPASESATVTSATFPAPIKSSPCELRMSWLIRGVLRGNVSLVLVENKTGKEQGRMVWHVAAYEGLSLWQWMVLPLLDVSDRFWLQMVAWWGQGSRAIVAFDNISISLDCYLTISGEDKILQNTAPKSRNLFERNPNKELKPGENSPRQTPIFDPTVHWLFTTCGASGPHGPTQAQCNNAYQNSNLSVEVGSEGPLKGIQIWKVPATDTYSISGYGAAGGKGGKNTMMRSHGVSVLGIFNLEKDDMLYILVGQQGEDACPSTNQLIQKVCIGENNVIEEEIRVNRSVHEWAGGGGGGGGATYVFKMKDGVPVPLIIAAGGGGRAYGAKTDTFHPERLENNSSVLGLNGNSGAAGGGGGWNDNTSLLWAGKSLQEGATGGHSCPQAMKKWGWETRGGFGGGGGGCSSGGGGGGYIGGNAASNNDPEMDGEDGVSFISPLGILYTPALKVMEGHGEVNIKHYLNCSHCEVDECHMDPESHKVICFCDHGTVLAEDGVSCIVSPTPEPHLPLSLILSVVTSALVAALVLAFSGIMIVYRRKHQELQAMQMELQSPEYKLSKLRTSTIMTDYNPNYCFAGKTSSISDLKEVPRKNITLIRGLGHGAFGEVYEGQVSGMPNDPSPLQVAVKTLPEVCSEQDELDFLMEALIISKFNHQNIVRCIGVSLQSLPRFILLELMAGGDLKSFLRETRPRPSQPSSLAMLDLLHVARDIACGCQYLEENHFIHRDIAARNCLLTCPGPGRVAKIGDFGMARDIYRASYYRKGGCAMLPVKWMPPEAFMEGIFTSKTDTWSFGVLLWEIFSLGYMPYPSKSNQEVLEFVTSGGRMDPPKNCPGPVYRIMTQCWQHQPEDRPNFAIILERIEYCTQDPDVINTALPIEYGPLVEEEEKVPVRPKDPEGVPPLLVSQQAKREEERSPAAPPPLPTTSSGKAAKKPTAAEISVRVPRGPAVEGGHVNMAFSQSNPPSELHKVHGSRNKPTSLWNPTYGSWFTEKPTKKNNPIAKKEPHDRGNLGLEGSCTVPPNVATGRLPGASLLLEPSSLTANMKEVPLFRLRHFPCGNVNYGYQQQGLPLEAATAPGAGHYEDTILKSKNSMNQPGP

[5] = test system: Receptor-type tyrosine-protein kinase FLT3 (Homo sapiens), P36888 [D835V]; details: Compound concentration 1000.0 nM
[6] = molecular target: Serine/threonine-protein kinase OSR1 (Homo sapiens) (UniProt O95747); details: Compound concentration 1000.0 nM
[7] = test system: Tyrosine-protein kinase ABL1 (Homo sapiens), P00519 [Y253F]; details: Compound concentration 1000.0 nM
[8] = molecular target: RAF proto-oncogene serine/threonine-protein kinase (Homo sapiens) (UniProt P04049); details: Compound concentration 1000.0 nM
RAF proto-oncogene serine/threonine-protein kinase (Homo sapiens), sequence (P04049 whole entry): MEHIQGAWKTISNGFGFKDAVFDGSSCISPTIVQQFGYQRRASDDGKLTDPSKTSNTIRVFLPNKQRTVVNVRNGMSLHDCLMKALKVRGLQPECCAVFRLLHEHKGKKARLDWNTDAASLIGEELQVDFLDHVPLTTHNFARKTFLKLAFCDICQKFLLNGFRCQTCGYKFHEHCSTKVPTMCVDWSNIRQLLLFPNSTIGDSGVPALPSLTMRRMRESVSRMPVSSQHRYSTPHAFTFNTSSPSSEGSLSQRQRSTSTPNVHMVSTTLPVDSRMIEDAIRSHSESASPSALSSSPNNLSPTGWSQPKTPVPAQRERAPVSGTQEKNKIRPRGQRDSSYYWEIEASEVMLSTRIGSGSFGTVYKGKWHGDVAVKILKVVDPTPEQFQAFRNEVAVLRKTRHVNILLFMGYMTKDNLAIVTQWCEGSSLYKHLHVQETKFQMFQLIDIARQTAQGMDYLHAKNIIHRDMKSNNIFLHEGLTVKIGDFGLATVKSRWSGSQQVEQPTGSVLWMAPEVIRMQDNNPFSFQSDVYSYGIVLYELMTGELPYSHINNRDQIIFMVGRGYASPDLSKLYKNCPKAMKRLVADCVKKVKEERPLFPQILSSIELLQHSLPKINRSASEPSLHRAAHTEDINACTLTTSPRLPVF

[9] = molecular target: T2, Ephrin type-B receptor 4 (Homo sapiens) (UniProt P54760); details: Compound concentration 1000.0 nM
T2 sequence (whole entry): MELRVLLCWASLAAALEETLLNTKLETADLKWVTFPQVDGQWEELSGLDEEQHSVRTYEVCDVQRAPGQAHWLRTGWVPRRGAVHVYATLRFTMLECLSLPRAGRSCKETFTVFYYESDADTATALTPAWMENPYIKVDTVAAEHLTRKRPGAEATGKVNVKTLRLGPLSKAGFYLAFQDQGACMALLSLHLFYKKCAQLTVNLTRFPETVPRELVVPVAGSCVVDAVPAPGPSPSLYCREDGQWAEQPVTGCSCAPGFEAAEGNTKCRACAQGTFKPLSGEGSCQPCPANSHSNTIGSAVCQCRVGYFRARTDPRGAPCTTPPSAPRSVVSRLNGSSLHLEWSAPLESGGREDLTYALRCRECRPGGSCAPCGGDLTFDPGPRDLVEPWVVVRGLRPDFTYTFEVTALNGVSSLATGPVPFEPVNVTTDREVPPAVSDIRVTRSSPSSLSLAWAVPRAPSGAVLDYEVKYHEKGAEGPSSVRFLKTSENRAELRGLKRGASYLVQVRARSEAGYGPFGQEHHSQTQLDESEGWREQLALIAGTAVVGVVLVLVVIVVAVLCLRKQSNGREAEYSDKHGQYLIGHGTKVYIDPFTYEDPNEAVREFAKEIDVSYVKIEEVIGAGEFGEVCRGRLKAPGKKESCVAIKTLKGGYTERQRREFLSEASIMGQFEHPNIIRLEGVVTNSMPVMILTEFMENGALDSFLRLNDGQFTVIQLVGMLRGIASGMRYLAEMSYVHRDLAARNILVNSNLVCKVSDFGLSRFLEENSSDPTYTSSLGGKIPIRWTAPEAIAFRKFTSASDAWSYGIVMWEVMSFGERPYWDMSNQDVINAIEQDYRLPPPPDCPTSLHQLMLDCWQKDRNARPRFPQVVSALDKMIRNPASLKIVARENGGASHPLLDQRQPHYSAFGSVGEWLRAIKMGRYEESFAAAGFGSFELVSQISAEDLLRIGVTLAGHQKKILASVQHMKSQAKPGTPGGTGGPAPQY

[10] = molecular target: Mitogen-activated protein kinase kinase kinase 4 (Homo sapiens) (UniProt Q9Y6R4); details: Compound concentration 1000.0 nM
[11] = test system: Receptor-type tyrosine-protein kinase FLT3 (Homo sapiens), P36888 [R834Q]; details: Compound concentration 1000.0 nM
[12] = molecular target: Calcium/calmodulin-dependent protein kinase type 1 (Homo sapiens) (UniProt Q14012); details: Compound concentration 1000.0 nM
[13] = molecular target: Serine/threonine-protein kinase PLK4 (Homo sapiens) (UniProt O00444); details: Compound concentration 1000.0 nM
Serine/threonine-protein kinase PLK4 (Homo sapiens), sequence (O00444 whole entry): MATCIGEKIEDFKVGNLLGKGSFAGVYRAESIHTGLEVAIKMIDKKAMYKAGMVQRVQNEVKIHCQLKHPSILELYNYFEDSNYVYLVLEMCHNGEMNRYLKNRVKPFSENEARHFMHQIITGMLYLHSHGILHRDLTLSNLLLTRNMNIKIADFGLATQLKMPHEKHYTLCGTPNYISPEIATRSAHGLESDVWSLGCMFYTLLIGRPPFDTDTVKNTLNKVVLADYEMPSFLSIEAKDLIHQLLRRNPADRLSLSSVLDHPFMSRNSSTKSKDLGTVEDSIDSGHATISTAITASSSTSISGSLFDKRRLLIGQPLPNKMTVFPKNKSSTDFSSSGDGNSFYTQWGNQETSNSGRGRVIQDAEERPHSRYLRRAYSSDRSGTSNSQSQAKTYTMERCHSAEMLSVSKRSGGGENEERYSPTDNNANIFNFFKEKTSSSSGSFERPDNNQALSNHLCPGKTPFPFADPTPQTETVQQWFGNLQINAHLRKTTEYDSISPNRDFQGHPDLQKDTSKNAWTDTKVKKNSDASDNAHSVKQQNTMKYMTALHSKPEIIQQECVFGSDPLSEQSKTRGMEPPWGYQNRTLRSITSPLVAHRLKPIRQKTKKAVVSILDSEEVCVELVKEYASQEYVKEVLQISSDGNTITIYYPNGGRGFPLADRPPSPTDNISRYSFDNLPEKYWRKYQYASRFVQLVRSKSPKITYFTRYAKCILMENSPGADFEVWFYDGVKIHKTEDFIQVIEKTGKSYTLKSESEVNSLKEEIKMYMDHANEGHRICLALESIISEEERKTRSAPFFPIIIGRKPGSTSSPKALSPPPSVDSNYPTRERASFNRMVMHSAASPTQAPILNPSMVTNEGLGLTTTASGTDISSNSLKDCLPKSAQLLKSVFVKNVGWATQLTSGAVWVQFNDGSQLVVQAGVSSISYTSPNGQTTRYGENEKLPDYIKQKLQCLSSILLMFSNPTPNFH

[14] = molecular target: T3, Dual specificity mitogen-activated protein kinase kinase 6 (Homo sapiens) (UniProt P52564); details: Compound concentration 1000.0 nM
T3 sequence (whole entry): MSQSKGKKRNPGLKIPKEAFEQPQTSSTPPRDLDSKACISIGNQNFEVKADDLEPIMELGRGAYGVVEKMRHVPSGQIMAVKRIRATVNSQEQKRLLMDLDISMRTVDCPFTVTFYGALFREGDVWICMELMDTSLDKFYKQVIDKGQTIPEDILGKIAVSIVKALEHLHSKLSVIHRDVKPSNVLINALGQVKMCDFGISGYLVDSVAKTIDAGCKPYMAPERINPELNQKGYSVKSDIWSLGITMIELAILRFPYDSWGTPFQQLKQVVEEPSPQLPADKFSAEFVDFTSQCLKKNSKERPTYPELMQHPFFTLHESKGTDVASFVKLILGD

[15] = molecular target: Mitogen-activated protein kinase kinase kinase 20 (Homo sapiens) (UniProt Q9NYL2); details: Compound concentration 1000.0 nM
Mitogen-activated protein kinase kinase kinase 20 (Homo sapiens), sequence (Q9NYL2 2-800 limits assumed): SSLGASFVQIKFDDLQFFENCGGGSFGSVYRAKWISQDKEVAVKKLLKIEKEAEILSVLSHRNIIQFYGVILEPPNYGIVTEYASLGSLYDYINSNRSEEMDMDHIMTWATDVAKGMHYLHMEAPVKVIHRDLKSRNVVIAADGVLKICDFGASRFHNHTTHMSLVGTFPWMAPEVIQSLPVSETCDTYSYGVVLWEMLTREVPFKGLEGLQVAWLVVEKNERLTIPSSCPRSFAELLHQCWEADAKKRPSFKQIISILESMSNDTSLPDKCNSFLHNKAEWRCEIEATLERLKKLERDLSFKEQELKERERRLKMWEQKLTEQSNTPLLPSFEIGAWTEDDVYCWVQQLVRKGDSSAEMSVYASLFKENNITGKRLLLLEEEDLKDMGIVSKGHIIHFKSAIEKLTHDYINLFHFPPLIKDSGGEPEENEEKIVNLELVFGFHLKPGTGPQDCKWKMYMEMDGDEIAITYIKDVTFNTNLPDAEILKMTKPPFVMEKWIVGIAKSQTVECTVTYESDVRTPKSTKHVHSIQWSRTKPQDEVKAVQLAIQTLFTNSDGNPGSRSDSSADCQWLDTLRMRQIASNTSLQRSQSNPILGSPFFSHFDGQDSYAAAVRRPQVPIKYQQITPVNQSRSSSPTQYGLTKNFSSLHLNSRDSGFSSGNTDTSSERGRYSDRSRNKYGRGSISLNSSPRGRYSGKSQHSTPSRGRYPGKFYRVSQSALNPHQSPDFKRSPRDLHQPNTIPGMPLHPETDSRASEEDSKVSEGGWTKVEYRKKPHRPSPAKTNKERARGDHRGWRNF

Compound	residual activity [1] [%]	residual activity [2] [%]	inhibition [3] [%]	residual activity [4] [%]	residual activity [5] [%]	residual activity [6] [%]	residual activity [7] [%]	residual activity [8] [%]	residual activity [9] [%]	residual activity [10] [%]	residual activity [11] [%]	residual activity [12] [%]	residual activity [13] [%]	residual activity [14] [%]	residual activity [15] [%]
CN(C)C(=O)Cn1cc(-c2nc(C3(c4ccc(-c5cnc(N)nc5)cc4)CC3)no2)cn1 [BI 0153]	81	62	0.23	77	49	82	98	100	100	92	90	100	100	100	92
CN(C)C(=O)Cn1cc(-c2nc([C@@](C)(c3ccc(-c4cnc(N)nc4)cc3)C3CC3)no2)cn1 [BI 665915]	86	100	-4.97	85	72	86	76	100	100	91	87	100	74	100	80

— ChEMBL document CHEMBL4507276 (2021)
